Measured values published in patent US20240350402A1, “TOPICAL DRUG TREATMENT TO PREVENT OR REDUCE CORNEAL SCARRING” (The Cleveland Clinic Foundation, priority 2021, published 2024).

Assays:
[1] = test system: corneal neovascularization (CNV); assay: Alkali burn model: central corneal neovascularization (corneal angiography); assay type: in vivo, rabbit; settings: four corneas in each group, topical six times per day, one month
Description: Alkali injuries were produced in one eye of rabbits with previously published methods^10 using 1N sodium hydroxide (Sigma, St. Louis, MO) in balanced salt solution (BSS, 0.64% sodium chloride, 0.075% potassium chloride, 0.048% calcium chloride dihydrate, […] magnesium chloride hexahydrate, 0.39% sodium acetate trihydrate, 0.17% sodium citrate dihydrate, pH 7.5, Alcon, H. Worth, TX) and a 5 mm diameter circular Whatman No. 1 filter paper (Cat #1001-6508, Fisher Scientific) wetted with 100 μl of 1N NaOH solution. Following the alkali burn injury, the cornea was irrigated profusely with BSS. Each injured cornea also received one drop of ciprofloxacin (Alcon, Ft. Worth, TX, USA) ten minutes after surgery and four times a day for one week and at least 15 minutes apart from the study medications.
Worth TX), at least 5 minutes apart, or 4) 50 μl of BSS.
All corneas had fluorescent angiography at the peak of dye passage in the cornea immediately after injection of 1.5 ml of 10% sodium fluorescein (McKesson, Irvine, TX) in the central ear vein with the slit lamp system and digital camera system using a “barrier filter” that only transmitted 520-530 nm, the peak of fluorescein emission, with broad illumination of the cornea, as previously described.^11

collagen type IV = assay: DMR model: IHC collagen type IV intensity in posterior stroma (ImageJ); assay type: in vivo, rabbit; settings: one month
Description: The rabbits had general anaesthesia with 30 mg/kg ketamine hydrochloride and 5 mg/kg xylazine by IM injection. In addition, topical proparacaine hydrochloride 1% (Alcon, Ft Worth, TX, USA) was applied to each eye prior to the surgery. One cornea selected at random in each group either had sham surgery without Descemetorhexis or an 8 mm diameter central Descemet's membrane-endothelial excision. The time point of one month after surgery was selected for the study because myofibroblasts and fibrosis in the posterior cornea was maximal at this time point in a prior time course Descemetorhexis study (Sampaio et al., 2021). Descemetorhexis was performed as described in the prior study (Sampaio et al., 2021). Briefly, a wire lid speculum was placed into one eye of each rabbit and an 8 mm diameter gentian violet circle was marked on the epithelial surface for reference. A limbal entry incision was created with a 1.6 mm blade (Bausch and Lomb, Rochester, NY, USA) and 0.3 ml Healon OVD (Abbott Medical Optics Inc. Santa Ana, CA, USA) was injected into the anterior chamber. A reversed Sinskey hook (Katena, Denville, New Jersey, USA) was placed into the anterior chamber and an 8 mm diameter disc of Descemet's membrane and endothelium was excised underlying the 8 mm area previously marked on the anterior corneal surface, without a subsequent endothelial corneal transplant. No removal of Descemet's membrane or endothelium was performed in unwounded sham surgery eyes. Remaining Healon OVD was removed with a Simcoe irrigation and aspiration cannula (Bausch & Lomb, Storz, Rochester, NY, USA) and the anterior chamber was filled with balanced salt solution (BSS). A single 10-0 nylon suture was placed at the incision site to prevent leakage from the anterior chamber. One drop of ciprofloxacin (Alcon, Ft. Worth, TX, USA) was applied to the corneas immediately after surgery and four times a day until the epithelium entry wound healed at approximately 2 days.
The oral solution was prepared with 5 ml distilled water+50 ml ora-plus (suspending vehicle—Perrigo, Dublin, Ireland)+45 ml Ora-sweet (flavored syrup vehicle—Perrigo).
Duplex immunohistochemistry (IHC) was performed after masking of slides by a researcher not involved in the analysis using previously described methods (de Oliveira et al., 2021) using primary antibodies (Table 2) confirmed by western blotting and IHC to recognize rabbit antigens or isotypic control antibodies (ThermoFisher Scientific, Waltham, MA), and secondary fluorescent tagged antibodies (Table 3).
The AB769 (Millipore, Temecula CA) collagen type IV antibody used in this study was generated against purified human and bovine collagen type IV, affinity purified with human and bovine collagen type IV crosslinked to agarose and cross-absorbed by the manufacturer with human and bovine collagens type I, II, III, V and VI to eliminate cross-reactivity. […]
Collagen type IV intensity in immunohistochemistry images was quantitated in 0.75 W×0.5H rectangles of posterior stroma tangent to the posterior corneal surface using ImageJ on 7.62 cm wide×5.69 cm height and 300 DPI images generated using standardized microscopic illumination settings applied to all sections. The quantitation rectangles were positioned such that the posterior side of the rectangle was tangent to the posterior corneal surface just anterior to Descemet's membrane, if one was present, in the analysed specimens. […]

[2] = test system: rabbit corneas after alkali burn injury; assay: Alkali burn model: slit lamp opacity area and intensity (ImageJ); assay type: in vivo; settings: alkali burn 1N NaOH; topical six times per day, one month; 0.8 mg/ml losartan, 1% prednisolone acetate
Description: All animal treatments and care were approved by the Institutional Animal Care and Use Committee (IACUC) at the Cleveland Clinic Foundation (Cleveland, OH, USA) and the Animal Care and Use Review Office of the Department of the Army (Fort Detrick, MD). All rabbits were treated in accordance with the tenets of the ARVO Statement for the Use of Animals in Ophthalmic and Vision Research. Sixteen 10- to 15-week-old female New Zealand White rabbits weighing 2.5 to 3.0 kg each were included in this example. […]
At one month after sodium hydroxide exposure and treatments, with the rabbits under ketamine-xylazine general anesthesia, the eyes were dilated with two drops of 1% tropicamide (Akom Co., Lake Forest, IL) for thirty minutes. […] For each study eye, the total area of opacity was determined by outlining the opacity with the freehand selection tool using ImageJ 1.53a analysis software calibrated to mm^2. The “raw internal density” in pixels for the opacified area in each cornea was also determined using ImageJ. […]

[3] = topical losartan and oral losartan

How did the “corneas in which central corneal neovascularization developed” value [1] turn out when CCCCc1nc(Cl)c(CO)n1Cc1ccc(-c2ccccc2-c2nn[nH]n2)cc1 [losartan] was run?
The value was “two”.

And the “collagen type IV production in the posterior stroma” value (collagen type IV; oral losartan alone)?
The value was “no significant effect”.

And the “collagen type IV localization in posterior stroma (IHC)” value (collagen type IV; topical losartan alone)?
Its value is “primarily detected adjacent to the posterior surfaces”.

What about the “collagen type IV vs DMR corneas treated with topical losartan alone” value (collagen type IV; [3]) of the same molecule?
Its value is “not different”.

And the “posterior stromal collagen type IV production compared to topical vehicle and oral vehicle (ImageJ intensity)” value (collagen type IV; [3])?
The value was “significantly decreased”.

What about the “posterior stromal collagen type IV production compared to topical vehicle and oral vehicle (ImageJ intensity)” value (collagen type IV; topical losartan) of the same molecule?
The value was “significantly decreased”.

What about the “total opacity intensity in pixels (ImageJ) vs BSS vehicle group” value [2] of the same molecule?
Its value is “significantly different”.
